Assay results reported in patent publication US20230295109A1, “PYRIDINONE COMPOUNDS FOR THE TREATMENT OF AUTOIMMUNE DISEASE” (F. Hoffmann-La Roche AG, priority 2020, published 2023).

What was measured:
[1] = Human microsome stability assay; format: in vitro ADME; details: 1 µM test compound, 0.5 mg/mL liver microsomal protein, 37° C., pH 7.4
Experimental: The human microsomal stability assay is used for early assessment of metabolic stability of a test compound in human liver microsomes.
Human liver microsomes (Cat.NO.: 452117, Corning, USA;Cat.NO.:H2610, Xenotech, USA) were preincubated with test compound for 10 minutes at 37° C. in 100 mM potassium phosphate buffer, pH 7.4. The reactions were initiated by adding NADPH regenerating system. The final incubation mixtures contained 1 µM test compound, 0.5 mg/mL liver microsomal protein, 1 mM MgCl2, 1 mM NADP, 1 unit/mL isocitric dehydrogenase and 6 mM isocitric acid in 100 mM potassium phosphate buffer, pH 7.4. After incubation times of 0, 3, 6, 9, 15 and 30 minutes at 37° C., 300 µL of cold acetonitrile (including internal standard) was added to 100 µL incubation mixture to terminate the reaction. Following precipitation and centrifugation, the amount of compound remaining in the samples were determined by LC-MS/MS. Controls of no NADPH regenerating system at zero and 30 minutes were also prepared and analyzed.

human TLR7 = molecular target: T1, human TLR7 (Homo sapiens, UniProt Q9NYK1); experiment: HEK293-Blue-hTLR-7 cells assay; format: cell-based; details: HEK293-Blue-hTLR7 cells, R848 stimulation, 20 hrs, SEAP reporter; read-out: HEK/hTLR7 IC50
T1 construct: host or cells: HEK293 (HEK-Blue hTLR7)
T1 sequence (Q9NYK1 27-1049): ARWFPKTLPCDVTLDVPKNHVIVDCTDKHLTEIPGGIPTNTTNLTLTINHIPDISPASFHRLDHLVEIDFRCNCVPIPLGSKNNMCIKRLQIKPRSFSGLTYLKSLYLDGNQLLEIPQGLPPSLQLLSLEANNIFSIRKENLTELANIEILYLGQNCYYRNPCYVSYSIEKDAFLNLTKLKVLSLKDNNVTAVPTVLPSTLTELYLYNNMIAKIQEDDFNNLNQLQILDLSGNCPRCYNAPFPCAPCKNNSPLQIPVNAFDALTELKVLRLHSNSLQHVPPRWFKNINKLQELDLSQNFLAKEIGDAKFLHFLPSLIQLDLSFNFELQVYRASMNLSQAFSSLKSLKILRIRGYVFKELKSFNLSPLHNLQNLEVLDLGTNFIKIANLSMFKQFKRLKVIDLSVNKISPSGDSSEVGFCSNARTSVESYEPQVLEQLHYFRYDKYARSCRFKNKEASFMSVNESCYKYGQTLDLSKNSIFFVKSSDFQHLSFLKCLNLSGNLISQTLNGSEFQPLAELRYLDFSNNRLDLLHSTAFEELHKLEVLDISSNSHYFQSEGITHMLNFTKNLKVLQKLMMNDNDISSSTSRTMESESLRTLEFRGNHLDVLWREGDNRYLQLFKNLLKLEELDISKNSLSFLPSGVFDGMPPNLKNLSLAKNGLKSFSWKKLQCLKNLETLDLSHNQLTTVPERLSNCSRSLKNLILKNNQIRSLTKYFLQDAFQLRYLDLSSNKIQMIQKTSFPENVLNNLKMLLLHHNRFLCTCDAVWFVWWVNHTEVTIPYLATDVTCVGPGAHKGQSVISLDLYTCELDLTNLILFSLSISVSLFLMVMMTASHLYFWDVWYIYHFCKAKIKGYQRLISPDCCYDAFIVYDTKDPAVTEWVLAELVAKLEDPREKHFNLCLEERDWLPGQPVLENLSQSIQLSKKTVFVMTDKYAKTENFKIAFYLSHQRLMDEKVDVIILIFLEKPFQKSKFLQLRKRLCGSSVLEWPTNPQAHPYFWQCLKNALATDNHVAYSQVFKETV
Excerpt: A stable HEK293-Blue-hTLR-7 cell line was purchased from InvivoGen (Cat.#: hkb-htlr7, San Diego, California, USA). These cells were originally designed for studying the stimulation of human TLR7 by monitoring the activation of NF-κB. A SEAP (secreted embryonic alkaline phosphatase) reporter gene was placed under the control of the IFN-β minimal promoter fused to five NF-κB and AP-1-binding sites. The SEAP was induced by activating NF-κB and AP-1 via stimulating HEK-Blue hTLR7 cells with TLR7 ligands. Therefore the reporter expression was declined by TLR7 antagonist under the stimulation of a ligand, such as R848 (Resiquimod), for incubation of 20 hrs. The cell culture supernatant SEAP reporter activity was determined using QUANTI-Blue™ kit (Cat.#: rep-qb1, Invivogen, San Diego, Ca, USA) at a wavelength of 640 nm, a detection medium that turns purple or blue in the presence of alkaline phosphatase.
HEK293-Blue-hTLR7 cells were incubated at a density of 250,000~450,000 cells/mL in a volume of 170 µL in a 96-well plate in Dulbecco’s Modified Eagle’s medium (DMEM) containing 4.5 g/L glucose, 50 U/mL penicillin, […], […], 2 mM L-glutamine, 10% (v/v) heat-inactivated fetal bovine serum with addition of 20 µL test compound in a serial dilution in the presence of final DMSO at 1% and 10 µL of 20uM R848 in above DMEM, perform incubation under 37° C. in a CO2 incubator for 20 hrs. Then 20 µL of the supernatant from each well was incubated with 180 µL Quanti-blue substrate solution at 37° C. for 2 hrs and the absorbance was read at 620 \~655 nm using a spectrophotometer. The signaling pathway that TLR7 activation leads to downstream NF-κB activation has been widely accepted, and therefore similar reporter assay was modified for evaluating TLR7 antagonist.

Clearance of Human microsome [1]	IC50 (human TLR7)	SMILES
6.5 mL/min/kg	9 nM	CCc1nc(N2CCN(Cc3cnc(N4CC5(CNCCO5)C4)nc3)CC2)ccc1-c1cc(C)c(=O)n(C)c1 [Example 1, 5-[2-ethyl-6-[4-[[2-(5-oxa-2,8-diazaspiro[3.5]nonan-2-yl)pyrimidin-5-yl]methyl]piperazin-1-yl]-3-pyridyl]-1,3-dimethyl-pyridin-2-one]
12.0 mL/min/kg	10 nM	CCc1nc(N2CCN(Cc3ccc(N4CC5(CNCCO5)C4)nc3)CC2)ccc1-c1cc(C)c(=O)n(C)c1 [Example 2, 5-[2-ethyl-6-[4-[[6-(5-oxa-2,8-diazaspiro[3.5]nonan-2-yl)-3 pyridyl]methyl]piperazin-1-yl]-3-pyridyl]-1,3-dimethyl-pyridin-2-one]
6.1 mL/min/kg	14 nM	CCc1nc(N2CCN(Cc3cnc(N4CC(C)(N)C4)nc3)CC2)ccc1-c1cc(C)c(=O)n(C)c1 [Example 3, 5-[6-[4-[[2-(3-amino-3-methyl-azetidin-1-yl)pyrimidin-5-yl]methyl]piperazin-1-yl]-2-ethyl-3-pyridyl]-1,3-dimethyl-pyridin-2-one]
	24 nM	CCc1nc(N2CCN(Cc3cnc(N4CCOC[C@@H](N)C4)nc3)CC2)ccc1-c1cc(C)c(=O)n(C)c1 [Example 4, 5-[6-[4-[[2-[(6S)-6-amino-1,4-oxazepan-4-yl]pyrimidin-5-yl]methyl]piperazin-1-yl]-2-ethyl-3-pyridyl]-1,3-dimethyl-pyridin-2-one]
	6 nM	CCc1nc(N2CCN(Cc3ccc(N4CCNCC4)cc3)CC2)ccc1-c1cc(C)c(=O)n(C)c1 [Example 5, 5-[2-ethyl-6-[4-[(4-piperazin-1-ylphenyl)methyl]piperazin-1-yl]-3-pyridyl]-1,3-dimethyl-pyridin-2-one]
	5 nM	Cc1cc(-c2ccc(N3CCN(Cc4cnc(N5CC6(CNCCO6)C5)nc4)CC3)nc2C(C)C)cn(C)c1=O [Example 6, 5-[2-isopropyl-6-[4-[[2-(5-oxa-2,8-diazaspiro[3.5]nonan-2-yl)pyrimidin-5-yl]methyl]piperazin-1-yl]-3-pyridyl]-1,3-dimethyl-pyridin-2-one]
	7 nM	Cc1cc(-c2ccc(N3CCN(Cc4cnc(N5CC(C)(N)C5)nc4)CC3)nc2C(C)C)cn(C)c1=O [Example 10, 5-[6-[4-[[2-(3-amino-3-methyl-azetidin-1-yl)pyrimidin-5-yl]methyl]piperazin-1-yl]-2-isopropyl-3-pyridyl]-1,3-dimethyl-pyridin-2-one]
	8 nM	Cc1cc(-c2ccc(N3CCN(Cc4ccc(N5CCNCC5)nc4)CC3)nc2C(C)C)cn(C)c1=O [Example 11, 5-[2-isopropyl-6-[4-[(6-piperazin-1-yl-3-pyridyl)methyl]piperazin-1-yl]-3-pyridyl]-1,3-dimethyl-pyridin-2-one]
	12 nM	Cc1cc(-c2ccc(N3CCN(Cc4ccc(N5CCNCC5)cc4)CC3)nc2C(C)C)cn(C)c1=O [Example 13, 5-[2-isopropyl-6-[4-[(4-piperazin-1-ylphenyl)methyl]piperazin-1-yl]-3-pyridyl]-1,3-dimethyl-pyridin-2-one]
	2 nM	Cc1cc(-c2ccc(N3CCN4CCN(c5ccc(N6CCNCC6)nc5)CC4C3)nc2C(C)C)cn(C)c1=O (centres unmarked) [Example 16, 5-[2-isopropyl-6-[8-(6-piperazin-1-yl-3-pyridyl)-3,4,6,7,9,9a-hexahydro-1H-pyrazino[1,2-a]pyrazin-2-yl]-3-pyridyl]-1,3-dimethyl-pyridin-2-one]
	3 nM	CCc1nc(N2CCN3CCN(c4cnc(N5CC6(CNCCO6)C5)nc4)CC3C2)ccc1-c1cc(C)c(=O)n(C)c1 (centres unmarked) [Example 19, 5-[2-ethyl-6-[2-[2-(5-oxa-2,8-diazaspiro[3.5]nonan-2-yl)pyrimidin-5-yl]-3,4,6,7,9,9a-hexahydro-1H-pyrazino[1,2-a]pyrazin-8-yl]-3-pyridyl]-1,3-dimethyl-pyridin-2-one]
